Key:
[1] = system: rat spinal cord injury model; assay: Hind limb motor function (BBB scale) in rat spinal cord injury model, crush method with forceps; format: in vivo; details: 60 μg/animal into the dura, seventh day after spinal cord injury, compared with physiological saline-administered group
Experimental: (§1) A spinal cord injury model (crush model with forceps) was prepared as described below. Twelve-week-old male Wistar rats were used as experimental animals. The animals were shaved from neck to hip with an electric clipper under pentobarbital anesthesia (50 mg/kg body weight) and the skin was cleansed with 70% ethanol and Isodine (product of Meiji Seika Kaisha, Ltd.). After dorsal skin incision, the thoracic spine from T5 to T10 was exposed, the sixth thoracic spine (T6 thoracic spine) was subjected to hemi-laminectomy, and a small incision was made on the dura. Following local anesthesia with Xylocaine (Astra Zeneca), a forceps (with the tip trimmed to 0.3 mm) was inserted at the position of T6 until its tip reached the vertebral body, and the spinal cord was crushed by sandwiching it from both sides for 10 sec. […]
After injury of the spinal cord, the hind limb motor function was assessed daily for 7 days by two independent blind examiners according to the method of Basso et al. (refer to Basso D M et al (1995), (1996)) using Basso-Beeattie-Bresnahan (BBB) Scale, and their average score was taken as a final assessment score. […]
The BBB score was evaluated using Tukey's nonparametric multiple comparison test.

MRL-lpr/lpr mouse = details: administration of L4; Xu H et al. (2005); cited from earlier work
interleukin-12 (IL-12) = details: reported by Asari et al. (Xu H et al. (2005)); cited from earlier work
[2] = system: rat spinal cord injury model; assay: Spinal cord evoked potential (SCEP) in rat spinal cord injury model, crush method with forceps; format: in vivo; details: 60 μg/animal into the dura, seventh day after spinal cord injury, compared with saline-administered group
Experimental: as §1
On the seventh day after the injury of the spinal cord, endotracheal intubation was performed into the experimental animal under halothane anesthesia (4.0% at the beginning, 1.0% during maintenance). […] Catheter electrodes were inserted into the experimental animal from the space between the second/third cervical vertebrae and the space between the 13th thoracic vertebra/first lumbar vertebra, and spinal cord evoked potential (SCEP) was measured with an electromyograph (Counterpoint, Dantec) after applying a supramaximal stimulus (stimulus frequency; 1 Hz, duration; 0.05 msec). […]

Structure (SMILES): CC(=O)N[C@H]1C(O)O[C@H](COS(=O)(=O)O)[C@@H](O[C@@H]2O[C@H](COS(=O)(=O)O)[C@H](O)[C@H](O)[C@H]2O)[C@@H]1O (stereo partly drawn) [L4, Gal(6S)β1-4GlcNAc(6S)]
- hind limb motor function (BBB score) [1]: significant recovery in hind limb motor function (P<0.001)
- IL-12 concentration in the blood (MRL-lpr/lpr mouse): reduces IL-12 concentration in the blood
- cell death of T lymphocytes (MRL-lpr/lpr mouse): induces cell death of T lymphocytes
- size of lymphatic organs (lymph node and spleen) (MRL-lpr/lpr mouse): causes shrinking of lymphatic organs
- effect on interleukin-12 (IL-12) expression (interleukin-12 (IL-12)): has an inhibitory effect on interleukin-12 (IL-12) expression
- spinal cord evoked potential (SCEP) amplitude [2]: a tendency for a recovery in the SCEP amplitude

Source: patent US20070167399A1, “Therapeutic drug for traumatic neural disease (disorder) and/or motor function disorder” (Glycoscience Laboratories, Inc., priority 2006, published 2007)
